Target: GABAA receptor
Assay: Steroid inhibition of [35S]-TBPS binding
Conditions: rat brain cortical membranes, 3 nM [35S]-TBPS, in the presence of 5 mM GABA
Procedure: Steroid Inhibition of TBPS Binding
Briefly, cortices are rapidly removed following decapitation of carbon dioxide-anesthetized Sprague-Dawley rats ([…]). The cortices are homogenized in 10 volumes of ice-cold 0.32 M sucrose using a glass/teflon homogenizer and centrifuged at 1500×g for 10 min at 4° C. The resultant supernatants are centrifuged at 10,000×g for 20 min at 4° C. to obtain the P2 pellets. The P2 pellets are resuspended in 200 mM NaCl/50 mM Na—K phosphate pH 7.4 buffer and centrifuged at 10,000×g for 10 min at 4° C. This washing procedure is repeated twice and the pellets are resuspended in 10 volumes of buffer. Aliquots ([…]) of the membrane suspensions are incubated with 3 nM [^35S]-TBPS and […] aliquots of test drug dissolved in dimethyl sulfoxide (DMSO) (final 0.5%) in the presence of 5 mM GABA. The incubation is brought to a final volume of 1.0 mL with buffer. […] Following a 90 min incubation at room temp, the assays are terminated by filtration through glass fiber filters (Schleicher and Schuell No. 32) using a cell harvester (Brandel) and rinsed three times with ice-cold buffer. Filter bound radioactivity is measured by liquid scintillation spectrometry. Non-linear curve fitting of the overall data for each drug averaged for each concentration is done using Prism (GraphPad).
Various compounds are or can be screened to determine their potential as modulators of [^35S]-TBPS binding in vitro. These assays are or can be performed in accordance with the above discussed procedures.

SMILES | IC50 [nM]
C[C@@]1(O)CC[C@H]2[C@H](CC[C@@H]3[C@@H]2CC[C@]2(C)[C@@H](C(=O)N4CCCc5ccccc54)CC[C@@H]32)C1 [Compound 35] | 100 to 500
C[C@@]1(O)CC[C@H]2[C@H](CC[C@@H]3[C@@H]2CC[C@]2(C)[C@@H](C(=O)Nc4ccc(F)cc4C#N)CC[C@@H]32)C1 [Compound 37] | 10 to 50
C[C@@]1(O)CC[C@H]2[C@H](CC[C@@H]3[C@@H]2CC[C@]2(C)[C@@H](C(=O)CNc4ccccc4)CC[C@@H]32)C1 [Compound 38] | < 10
CN(CC(=O)[C@H]1CC[C@H]2[C@@H]3CC[C@@H]4C[C@](C)(O)CC[C@@H]4[C@H]3CC[C@]12C)c1ccccc1 [Compound 39] | 50 to 100
C[C@@]1(O)CC[C@H]2[C@H](CC[C@@H]3[C@@H]2CC[C@]2(C)[C@@H](C(=O)CNc4ccc(F)cc4)CC[C@@H]32)C1 [Compound 40] | < 10
C[C@@]1(O)CC[C@H]2[C@H](CC[C@@H]3[C@@H]2CC[C@]2(C)[C@@H](C(=O)CNc4cccc(F)c4)CC[C@@H]32)C1 [Compound 41] | < 10
CN(CC(=O)[C@H]1CC[C@H]2[C@@H]3CC[C@@H]4C[C@](C)(O)CC[C@@H]4[C@H]3CC[C@]12C)c1cccc(F)c1 [Compound 42] | 10 to 50
CN(CC(=O)[C@H]1CC[C@H]2[C@@H]3CC[C@@H]4C[C@](C)(O)CC[C@@H]4[C@H]3CC[C@]12C)c1ccc(F)cc1 [Compound 43] | 10 to 50
CCOC[C@@]1(O)CC[C@H]2[C@H](CC[C@@H]3[C@@H]2CC[C@]2(C)[C@@H](C(=O)N4CCc5ccccc5C4)CC[C@@H]32)C1 [Compound 44] | 50 to 100
CCOC[C@@]1(O)CC[C@H]2[C@H](CC[C@@H]3[C@@H]2CC[C@]2(C)[C@@H](C(=O)N[C@H](C)c4ccc(C#N)cc4)CC[C@@H]32)C1 [Compound 48] | 100 to 500
CCOC[C@@]1(O)CC[C@H]2[C@H](CC[C@@H]3[C@@H]2CC[C@]2(C)[C@@H](C(=O)N(C)[C@H](C)c4ccc(C#N)cc4)CC[C@@H]32)C1 [Compound 49] | 50 to 100
CCOC[C@@]1(O)CC[C@H]2[C@H](CC[C@@H]3[C@@H]2CC[C@]2(C)[C@@H](C(=O)N4CCCCC4)CC[C@@H]32)C1 [Compound 50] | 100 to 500
CCOC[C@@]1(O)CC[C@H]2[C@H](CC[C@@H]3[C@@H]2CC[C@]2(C)[C@@H](C(=O)N4CCC[C@H]4c4ncco4)CC[C@@H]32)C1 [Compound 55] | > 500
CCOC[C@@]1(O)CC[C@H]2[C@H](CC[C@@H]3[C@@H]2CC[C@]2(C)[C@@H](C(=O)N(C)[C@H](CC)c4ccc(F)cc4)CC[C@@H]32)C1 [Compound 56] | 100 to 500
CCOC[C@@]1(O)CC[C@H]2[C@H](CC[C@@H]3[C@@H]2CC[C@]2(C)[C@@H](C(=O)N(C)[C@@H](CC)c4ccc(F)cc4)CC[C@@H]32)C1 [Compound 57] | 100 to 500
CCOC[C@@]1(O)CC[C@H]2[C@H](CC[C@@H]3[C@@H]2CC[C@]2(C)[C@@H](C(=O)N[C@H](CC)c4ccc(F)cc4)CC[C@@H]32)C1 [Compound 58] | > 500
CCOC[C@@]1(O)CC[C@H]2[C@H](CC[C@@H]3[C@@H]2CC[C@]2(C)[C@@H](C(=O)N4CCC[C@@H]4c4ncco4)CC[C@@H]32)C1 [Compound 60] | > 500
CCOC[C@@]1(O)CC[C@H]2[C@H](CC[C@@H]3[C@@H]2CC[C@]2(C)[C@@H](C(=O)N(C)[C@H](C)c4ccc(F)cc4)CC[C@@H]32)C1 [Compound 61] | 100 to 500
CN(CC(=O)[C@H]1CC[C@H]2[C@@H]3CC[C@H]4C[C@](C)(O)CC[C@@H]4[C@H]3CC[C@]12C)c1ccccc1 [Compound 63] | 100 to 500
C[C@@]1(O)CC[C@H]2[C@@H](CC[C@@H]3[C@@H]2CC[C@]2(C)[C@@H](C(=O)CNc4ccccc4)CC[C@@H]32)C1 [Compound 64] | 50 to 100
CCOC[C@]12CC[C@@](C)(O)C[C@@H]1CC[C@H]1[C@@H]3CC[C@H](C(=O)CN(C)c4ccccc4)[C@@]3(C)CC[C@@H]12 [Compound 65] | 100 to 500
CCOC[C@]12CC[C@@](C)(O)C[C@@H]1CC[C@H]1[C@@H]3CC[C@H](C(=O)CNc4ccccc4)[C@@]3(C)CC[C@@H]12 [Compound 66] | 50 to 100

SMILES | IC50 [nM]
C[C@H](c1ccc(C#N)cc1)N(C)C(=O)[C@H]1CC[C@H]2[C@@H]3CC[C@@H]4C[C@@](O)(C(F)(F)F)CC[C@@H]4[C@H]3CC[C@]12C [Compound 69] | 100 to 500
C[C@@H](c1ccc(C#N)cc1)N(C)C(=O)[C@H]1CC[C@H]2[C@@H]3CC[C@@H]4C[C@@](O)(C(F)(F)F)CC[C@@H]4[C@H]3CC[C@]12C [Compound 70] | 100 to 500
C[C@]12CC[C@](O)(C(F)(F)F)C[C@@H]1CC[C@@H]1[C@@H]2CC[C@]2(C)[C@@H](C(=O)CNc3ccccc3)CC[C@@H]12 [Compound 73] | 50 to 100
CN(CC(=O)[C@H]1CC[C@H]2[C@@H]3CC[C@H]4C[C@@](O)(C(F)(F)F)CC[C@]4(C)[C@H]3CC[C@]12C)c1ccccc1 [Compound 74] | > 500
COC[C@]12CC[C@@](C)(O)C[C@H]1CC[C@H]1[C@@H]3CC[C@H](C(=O)CN(C)c4ccccc4)[C@@]3(C)CC[C@@H]12 [Compound 75] | 10 to 50
COC[C@]12CC[C@@](C)(O)C[C@H]1CC[C@H]1[C@@H]3CC[C@H](C(=O)CNc4ccccc4)[C@@]3(C)CC[C@@H]12 [Compound 76] | < 10
COC[C@]12CC[C@](O)(C(F)(F)F)C[C@H]1CC[C@H]1[C@@H]3CC[C@H](C(=O)CNc4ccccc4)[C@@]3(C)CC[C@@H]12 [Compound 77] | 10 to 50
COC[C@]12CC[C@](O)(C(F)(F)F)C[C@H]1CC[C@H]1[C@@H]3CC[C@H](C(=O)Nc4ccccc4)[C@@]3(C)CC[C@@H]12 [Compound 78] | 50 to 100
COC[C@]12CC[C@](O)(C(F)(F)F)C[C@H]1CC[C@H]1[C@@H]3CC[C@H](C(=O)N(C)Cc4ccccc4)[C@@]3(C)CC[C@@H]12 [Compound 79] | 100 to 500
COC[C@]12CC[C@](O)(C(F)(F)F)C[C@H]1CC[C@H]1[C@@H]3CC[C@H](C(=O)NC4CCCCC4)[C@@]3(C)CC[C@@H]12 [Compound 80] | > 500
CCOC[C@@]1(O)CC[C@H]2[C@H](CC[C@@H]3[C@@H]2CC[C@]2(C)[C@@H](C(=O)CN(C)c4ccccc4)CC[C@@H]32)C1 [Compound 83] | 100 to 500
CCOC[C@@]1(O)CC[C@H]2[C@H](CC[C@@H]3[C@@H]2CC[C@]2(C)[C@@H](C(=O)CNc4ccccc4)CC[C@@H]32)C1 [Compound 84] | 10 to 50
CCOC[C@@]1(O)CC[C@H]2[C@@H](CC[C@@H]3[C@@H]2CC[C@]2(C)[C@@H](C(=O)CN(C)c4ccccc4)CC[C@@H]32)C1 [Compound 85] | > 500
CCOC[C@@]1(O)CC[C@H]2[C@@H](CC[C@@H]3[C@@H]2CC[C@]2(C)[C@@H](C(=O)CNc4ccccc4)CC[C@@H]32)C1 [Compound 86] | 100 to 500
C[C@@]1(O)CC[C@@]2(C)[C@@H](CC[C@@H]3[C@@H]2CC[C@]2(C)[C@@H](Nc4ccccc4)CC[C@@H]32)C1 [Compound 87] | 100 to 500
CN(c1ccccc1)[C@H]1CC[C@H]2[C@@H]3CC[C@H]4C[C@](C)(O)CC[C@]4(C)[C@H]3CC[C@]12C [Compound 88] | > 500
C[C@@]1(O)CC[C@@]2(C)[C@@H](CC[C@@H]3[C@@H]2CC[C@]2(C)[C@@H](Nc4ccc(F)cc4)CC[C@@H]32)C1 [Compound 89] | 100 to 500
C[C@@]1(O)CC[C@@]2(C)[C@@H](CC[C@@H]3[C@@H]2CC[C@]2(C)[C@@H](Nc4cccc(F)c4)CC[C@@H]32)C1 [Compound 90] | 100 to 500
C[C@@]1(O)CC[C@@]2(C)[C@@H](CC[C@@H]3[C@@H]2CC[C@]2(C)[C@@H](Nc4ccccc4F)CC[C@@H]32)C1 [Compound 91] | > 500
C[C@@]1(O)CC[C@@]2(C)[C@@H](CC[C@@H]3[C@@H]2CC[C@]2(C)[C@@H](NCc4ccccc4)CC[C@@H]32)C1 [Compound 92] | > 500
C[C@@]1(O)CC[C@@]2(C)[C@@H](CC[C@@H]3[C@@H]2CC[C@]2(C)[C@@H](N)CC[C@@H]32)C1 [Compound 93] | > 500
C[C@@]1(O)CC[C@@]2(C)[C@@H](CC[C@@H]3[C@@H]2CC[C@]2(C)[C@@H](NC(=O)c4ccccc4)CC[C@@H]32)C1 [Compound 94] | > 500

— patent publication US12655175B2, “C17, C20, and C21 substituted neuroactive steroids and their methods of use” (Sage Therapeutics, LLC, priority 2016, dated 2026)
